This is an account of results in article PMC9822155, “Synthesis and Antiproliferative Activity against Cancer Cells of Indole-Aryl-Amide Derivatives” (Molecules, 2022).

SMILES strings stand for the structures. Where only a bound is given, the exact number is not on record here.

The test system of one assay is Jurkat J6 cells. Kind of assay: MTT viability assay, Jurkat J6. The class given is cell-based, human. The settings on record: Homo sapiens, Jurkat; MTT, 24 h. An excerpt:
(§1) To investigate whether the compounds have an antitumor activity, we performed in vitro viability assays against a panel of cancer cell lines: HT29 (human colorectal adenocarcinoma), HeLa (human cervical carcinoma), IGROV-1 (human ovarian carcinoma), MCF7 (human breast cancer), PC-3 (human prostate adenocarcinoma), and Jurkat J6 (human […]). The I407 (human embryonic intestinal) and 3T3 (mouse embryonic fibroblast) cells were used as controls. The growth inhibitory concentration was determined by incubating the cells with increasing concentrations (0.01–500 μM) of the compounds for 24 h. Data obtained from cell growth assays were elaborated to assess the concentration of cell viability (IC50) and selectivity indices (SI), and the results are shown in Table 2 and Table 3, respectively.
(§2) HT29 human colorectal adenocarcinoma cells, HeLa human cervix adenocarcinoma cells, MCF7 human breast adenocarcinoma cells, PC-3 human prostate adenocarcinoma cells, J6 Jurkat Clone E6-1 acute T cell leukemia, the healthy I407 human intestine cells, and mouse embryonic fibroblast 3T3 fibroblasts as controls cell lines were purchased from American Type Culture Collection (ATCC, Manassas, VA). The human ovarian cancer cell line IGROV1 has been kindly provided by Prof. Colnaghi (Istituto Nazionale Tumori (IRCCS) (Milano, Italy). Cells were cultured in RPMI 1640 medium (Labtek Eurobio, Milan, Italy), supplemented with 10% FCS (Euroclone, Milano, Italy) and 2 mM L-glutamine (Sigma-Aldrich, Milano, Italy), at 37 °C, and a 5% CO2 atmosphere. The compounds were dissolved in DMSO in a 30–40 mM stock solution. In cell treatments, the final DMSO concentration never exceeded 0.1%.
(§3) Cells were seeded at 1.5 × 10^4 cells/well in a 96-well culture plastic plate (Sarsted, Milan, Italy), and after 24 h of growth were exposed to increasing concentrations of each distinct compound (from 0.010 μM to 500 μM) solubilized in RPMI 1640 medium. MTT assay was performed according to the literature. In brief, after 24 h of treatment, the culture medium was replaced with 0.1 mL of 3-(4,5-dimethylthiazolyl-2)-2,5-diphenyltetrazolium bromide (MTT, Sigma-Aldrich, Milano, Italy) dissolved in PBS at the concentration of 0.2 mg/mL, and samples were incubated for 2 h at 37 °C. The absorbance at 570 nm was measured using a multiwell plate reader (Tecan, Männemorf, Switzerland), and data were analyzed by Prism GraphPad software, and expressed as IC50 μM.

Another assay deals with T1, δ-OR (Homo sapiens, UniProt P41143).
T1 construct: purchased PerkinElmer (Krakow, Poland); host or cells: CHO cells (membranes)
Kind of assay: Radioligand binding assay, δ-OR ([3H]deltorphin-2 displacement). The settings on record: [3H]deltorphin-2, membranes of CHO cells with human recombinant OR; ± SEM (n ≥ 3). The procedure: (§4) In order to evaluate the affinity of the compounds for μ-, δ-, κ-ORs, radioligand binding assays were performed. Displacement of radioligands, [^3H]DAMGO (μ-OR selective), [^3H]deltorphin-2 (δ-OR selective), and [^3H]U-69593 (κ-OR selective) by the synthetic analogs was investigated in the commercial membranes of CHO cells transfected with human recombinant ORs. […] Due to the modest receptor affinities, the functional activity of the compounds was not investigated.
(§5) Opioid radioligands, [^3H]DAMGO, [^3H]deltorphin-2 and [^3H]U-69593, and human recombinant opioid receptors came from PerkinElmer (Krakow, Poland). GF/B glass fiber strips were purchased from Whatman (Brentford, UK).
(§6) To determine the affinity of peptide analogs at the respective receptors, competition binding experiments were performed. Commercial membranes of CHO cells stably expressing human opioid receptors and the competing radioligands, [^3H]DAMGO, [^3H]deltorphin-2, and [^3H]U-69593 for μ-OR, δ-OR, and κ-OR, respectively, were used. Membranes were incubated in 0.5 mL volume of 50 mM Tris/HCl (pH = 7.4), 0.5% bovine serum albumin (BSA), with a number of peptidase inhibitors (bacitracin, bestatin, captopril) and various concentrations of radioligands for 2 h at 25 °C. Non-specific binding was assessed in the presence of […]. Three independent experiments for each assay were carried out in duplicate. The data were analyzed by a nonlinear least square regression analysis computer program Graph Pad PRISM 6.0 (Graph Pad Software Inc., San Diego, CA, USA). The IC50 values were determined from the logarithmic concentration-displacement curves, and the values of the inhibitory constants (Ki) were calculated according to the equation of Cheng and Prusoff.

Assay [1] relates to I407 (human embryonic intestinal) cells. Nature of the assay: MTT viability assay, I407. Format: cell-based. The settings on record: Homo sapiens, 24 h, normal cells.
Text: as §1, §2, §3

The subject of assay [2] is MCF7 (human breast cancer) cells. Nature of the assay: MTT viability assay, MCF7. Format: cell-based. The settings on record: for IC50: Homo sapiens, MCF7, MTT, 24 h.
Text: as §1, §2, §3

The test system of assay [3] is PC-3 (human prostate adenocarcinoma) cells. Nature of the assay: MTT viability assay, PC3. The class given is cell-based. The settings on record: for IC50: Homo sapiens, MTT, 24 h.
Text: as §1, §2, §3

Assay [4] has as its system 3T3 (mouse embryonic fibroblast) cells. Nature of the assay: MTT viability assay, 3T3. The class given is cell-based. The settings on record: 24 h, normal cells.
Text: as §1, §2, §3

The test system of assay [5] is IGROV-1 (human ovarian carcinoma) cells. Nature of the assay: MTT viability assay, IGROV-1. The settings on record: 24 h. Format: cell-based.
Text: as §1, §2, §3

The target of the next assay is T2, κ-OR (Homo sapiens, UniProt P41145).
T2 construct: purchased PerkinElmer (Krakow, Poland); host or cells: CHO cells (membranes)
Nature of the assay: Radioligand binding assay, κ-OR ([3H]U-69593 displacement). The following applies: [3H]U-69593, membranes of CHO cells with human recombinant OR; ± SEM (n ≥ 3). The procedure: as §4, §5, §6

Assay [6] concerns HeLa (human cervical carcinoma) cells. Nature of the assay: MTT viability assay, HeLa. Format: cell-based. The settings on record: for Selectivity Index IC503T3/ IC50HeLa: 3T3 normal cells as reference; for IC50: Homo sapiens, MTT, 24 h; for Selectivity Index IC50I407/ IC50HeLa: I407 normal cells as reference.
Text: as §1, §2, §3

Assay [7] deals with HT29 (human colorectal adenocarcinoma) cells. Nature of the assay: MTT viability assay, HT29. Format: cell-based. The settings on record: for Selectivity Index IC503T3/ IC50HT29: 3T3 normal cells as reference; for IC50: Homo sapiens, HT-29, MTT, 24 h.
Text: as §1, §2, §3

A further assay concerns the target T3, μ-OR (Homo sapiens, UniProt P35372).
T3 construct: purchased PerkinElmer (Krakow, Poland); host or cells: CHO cells (membranes)
Nature of the assay: Radioligand binding assay, μ-OR ([3H]DAMGO displacement). The following applies: membranes of CHO cells with human recombinant OR, ± SEM (n ≥ 3). As for the experimental part:
as §4, §5, §6

T2 sequence (P41145 whole entry): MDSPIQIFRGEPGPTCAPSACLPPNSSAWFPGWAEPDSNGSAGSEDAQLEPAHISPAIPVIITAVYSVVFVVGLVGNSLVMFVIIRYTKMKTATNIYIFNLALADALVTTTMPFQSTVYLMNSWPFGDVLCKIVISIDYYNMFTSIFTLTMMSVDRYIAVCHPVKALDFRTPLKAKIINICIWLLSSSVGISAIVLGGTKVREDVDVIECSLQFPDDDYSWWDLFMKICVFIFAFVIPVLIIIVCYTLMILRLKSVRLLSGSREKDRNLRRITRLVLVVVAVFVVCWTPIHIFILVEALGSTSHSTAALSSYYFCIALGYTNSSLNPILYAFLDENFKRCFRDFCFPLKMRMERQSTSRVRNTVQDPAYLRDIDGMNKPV
T1 sequence (P41143 whole entry): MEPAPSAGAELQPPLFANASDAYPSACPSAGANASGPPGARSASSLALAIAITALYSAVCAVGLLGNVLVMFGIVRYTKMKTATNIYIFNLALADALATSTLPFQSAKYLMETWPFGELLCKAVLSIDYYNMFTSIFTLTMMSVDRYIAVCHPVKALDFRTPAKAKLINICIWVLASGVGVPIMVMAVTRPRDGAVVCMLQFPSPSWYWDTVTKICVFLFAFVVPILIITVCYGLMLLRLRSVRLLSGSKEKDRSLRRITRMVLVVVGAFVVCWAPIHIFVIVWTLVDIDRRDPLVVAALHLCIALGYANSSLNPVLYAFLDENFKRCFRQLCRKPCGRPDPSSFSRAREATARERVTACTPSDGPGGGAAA
T3 sequence (P35372 whole entry): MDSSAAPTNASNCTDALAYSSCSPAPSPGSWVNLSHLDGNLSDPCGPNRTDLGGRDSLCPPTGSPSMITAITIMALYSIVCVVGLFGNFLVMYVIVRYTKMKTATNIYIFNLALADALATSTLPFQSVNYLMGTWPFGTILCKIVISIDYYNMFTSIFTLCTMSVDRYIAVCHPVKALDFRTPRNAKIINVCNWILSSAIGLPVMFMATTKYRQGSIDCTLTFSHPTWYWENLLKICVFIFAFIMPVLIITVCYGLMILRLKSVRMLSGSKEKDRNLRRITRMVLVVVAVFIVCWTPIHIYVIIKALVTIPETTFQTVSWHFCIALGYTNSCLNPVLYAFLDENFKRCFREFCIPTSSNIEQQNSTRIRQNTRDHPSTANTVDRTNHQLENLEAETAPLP

On to `O=C(CCc1ccc(O)cc1)N(CCc1c[nH]c2ccccc12)Cc1ccccc1` [Compound 1], for which the IC50 with Jurkat J6 cells was more than 500 µM; in [1], 63 ± 0.06 µM; in [2], more than 500 µM; in [3] it was more than 500 µM; in [4], 164.3 ± 0.01 µM; in [5] it was more than 500 µM. For the same compound, the values for the half-inhibitory concentration (IC50) in assay [6] and in assay [7] were 25 ± 0.06 µM and 0.31 ± 0.06 µM, respectively. Further, the inhibitory constant (Ki) on δ-OR is 37.1 ± 1.4 µM; on κ-OR it was 5 ± 2.9 µM. Also, the “Selectivity Index IC503T3/ IC50HeLa” value in [6] amounted to 6.572. Further, the “Selectivity Index IC50I407/ IC50HeLa” value in assay [6] was 2.52. In addition, in assay [7], the “Selectivity Index IC503T3/ IC50HT29” value is listed as 530. Further, in [7] (I407 normal cells as reference), the “Selectivity Index IC50I407/ IC50HT29” value was 203.23.
Consider `Nc1ccc(CC(=O)N(CCc2c[nH]c3ccccc23)Cc2ccccc2)cc1` [Compound 2], for which the concentration for half-maximal inhibition (IC50) in the assay on Jurkat J6 cells is more than 500 µM; in assay [1] it was 0.35 ± 0.03 µM; in assay [2] it was 0.81 ± 0.03 µM; in assay [3] it was 2.13 ± 0.04 µM; in assay [4], more than 500 µM; in [5] it was more than 500 µM. The IC50 in [6] and in assay [7] was more than 500 µM each time. Moreover, the Ki is 9 ± 0.6 µM on δ-OR, 54.6 ± 3.5 µM at μ-OR and 2.5 ± 0.4 µM on κ-OR. The “Selectivity Index IC50I407/ IC50MCF7” value in assay [2] (I407 normal cells as reference) came to 0.432. In addition, the “Selectivity Index IC50I407/ IC50PC3” value in assay [3] (I407 normal cells as reference) is 0.164. Besides, the “Ki (µM) κ-OR” value on κ-OR was “low μM range”.
As for `Nc1ccc(CC(=O)Nc2ccc(CC(=O)N(CCc3c[nH]c4ccccc34)Cc3ccccc3)cc2)cc1` [Compound 3], the IC50 was more than 500 µM in the assay with Jurkat J6 cells; 75 ± 0.07 µM in assay [1]; more than 500 µM in assay [2]; more than 500 µM in assay [3]; 0.5 ± 0.04 µM in assay [4]; more than 500 µM in assay [5]. The half-inhibitory concentration (IC50) in assay [6] is 5.64 ± 0.01 µM; in assay [7] it was more than 500 µM. The Ki on δ-OR amounted to 6.5 ± 0.8 µM; on μ-OR it was 10.7 ± 1.7 µM; on κ-OR, 7.8 ± 0.2 µM. For the same compound, in assay [6], the “Selectivity Index IC503T3/ IC50HeLa” value came out at 0.089. Further, in assay [6], the “Selectivity Index IC50I407/ IC50HeLa” value came to 13.29.
Regarding `Nc1ccc(CNC(=O)Cc2c[nH]c3ccccc23)cc1` [Compound 4], the concentration for half-maximal inhibition (IC50) with Jurkat J6 cells was more than 500 µM; in assay [1] it was more than 500 µM; in assay [2], 0.84 ± 0.03 µM; in assay [3], more than 500 µM; in assay [4], 0.63 ± 0.02 µM; in [5] it was more than 500 µM. For the same compound, the IC50 worked out at 1.87 ± 0.02 µM in assay [6] and 0.96 ± 0.04 µM in assay [7]. Further, the “Selectivity Index IC503T3/ IC50MCF7” value in [2] (3T3 normal cells as reference) turned out to be 0.75. For the same compound, the Ki at κ-OR came out at 7.4 ± 1.3 µM. For the same compound, the “Selectivity Index IC503T3/ IC50HeLa” value in assay [6] is 0.337. For the same compound, the “Selectivity Index IC503T3/ IC50HT29” value in [7] is on record as 0.656.
For the compound `NC(=O)CN(Cc1ccc(N)cc1)C(=O)Cc1c[nH]c2ccccc12` [Compound 6], the IC50 in the assay on Jurkat J6 cells is more than 500 µM; in [1], more than 500 µM; in assay [2] it was more than 500 µM; in assay [3] it was 166 ± 0.03 µM; in [4], 0.11 ± 0.03 µM; in assay [5], more than 500 µM. The 50% inhibitory concentration (IC50) in assay [6] and in [7] was more than 500 µM each time. Moreover, the figures for the Ki on δ-OR, at μ-OR and at κ-OR were 85.5 ± 2 µM, 451 ± 11 µM and 26.7 ± 9.5 µM, respectively. The “Selectivity Index IC503T3/ IC50PC3” value in [3] (3T3 normal cells as reference) came to 0.001.
In the case of `Nc1ccc(CN(CCCO)C(=O)Cc2c[nH]c3ccccc23)cc1` [Compound 7], the IC50 in the assay on Jurkat J6 cells was more than 500 µM; in assay [1] it was more than 500 µM; in assay [2], 0.49 ± 0.01 µM; in assay [3], more than 500 µM; in assay [4] it was more than 500 µM; in assay [5] it was more than 500 µM. Moreover, the half-maximal inhibitory concentration (IC50) in assay [6] and in [7] was more than 500 µM throughout. Also, the Ki on δ-OR was determined as 115 ± 45 µM; on κ-OR, 3.8 ± 0.3 µM. Moreover, on κ-OR, the “Ki (µM) κ-OR” value is recorded as “low μM range”.
